Data on 13 molecules can be found in US7524840B2, “7,8-disubstituted pyrazolobenzodiazepines” (Hoffmann-La Roche Inc., priority 2004, dated 2009).

One series has as its target T1, FGFR.
T1 construct: fused on or other part: GST tag
The experiment in a line: FGFR kinase HTRF assay. Particulars: 1.5 nM activated FGFR, 10 μM ATP; read-out: Inhibition of FGFR IC50. The series is classed as biochemical. How it is done:
(§1) To determine inhibition of KDR and FGFR, kinase assays were conducted using an HTRF (Homogeneous Time Resolved Fluorescence) assay. This assay is described in A. J. Kolb et. al., Drug Discovery Today, 1998, 3(7), p 333.
FGFR activity assays were carried out as described above for the KDR activity assay with the following differences. GST-tagged FGFR enzyme was activated at room temperature for 1 hour in the following activation buffer: 100 mM HEPES, pH 7.4, 50 mM NaCl, 20 mM MgCl2, and 4 mM ATP. […] The rest of the assay was performed in the same manner as KDR assay.
(§2) Compound IC50 values were determined from duplicate sets of data, and calculated by using Excel and fitting data to equation Y=[(a−b)/{1+(X/c)^d]+b, where a and b are enzyme activity in the presence of no test inhibitor compound and an infinite amount of inhibitor test compound, respectively, c is the IC50 and d is the hill constant of the compound response. The IC50 value is the concentration of test compound that reduces by 50% the enzyme activity under the test conditions described.
(TR-FRET usually uses a lanthanide donor and a delayed reading to cut background.)

The next series concerns FGF-stimulated HUVEC. The experiment in a line: FGF-stimulated HUVEC proliferation assay (BrdU). The format is cell-based. Particulars: Homo sapiens, BrdU labeling, FGF 5 ng per mL, 24 hour exposure, read-out: Antiproliferative Activity FGF-stimulated HUVEC Assay IC50. How it is done: (§3) The antiproliferative activity of test compounds of this invention in cell-based assays was evaluated by BrdU assay using the BrdU kit (Roche Biochemicals 1-647-229). Human umbilical vein endothelial cells (HUVEC, Clonetics CC-2519) were cultured in EGM-2 (Clonetics CC-3162) medium and seeded at 10000 cells per well in a volume of 200 μL of EGM-2 (Clonetics CC-3162) media in a 96-well flat bottom plates (Costar 3595) overnight. After 24 hours of growth at 37° C. with 5% CO2, the incubation media was removed slowly by aspiration, and the content of each well was washed with 300 μL pre-warmed EBM-2 (Clonetics CC-3156) containing 50 μg per mL of gentamycin and 50 ng per mL of amphotercin-B (Clonetics CC-4083). Subsequently, the remaining media was again aspirated and replaced with 160 μL per well of serum starvation media (EBM-2 supplemented with 1% heat inactivated FBS (Clonetics CC-4102), 50 μg per mL gentamycin and 50 ng per mL of amphotercin-B (Clonetics CC-4083), 10 units per mL of Wyeth-Ayerst heparin (NDC0641-0391-25), and 2 mM L-glutamine (GIBCO 25030-081). After serum starving the cells for 24 hours, 20 μL of test compound at 10× test concentration in serum starvation medium with 2.5% DMSO was added to the appropriate wells. The control wells contained 20 μL of serum starvation medium with 2.5% DMSO. Plates were returned to the incubator for 2 hours. After pre-incubating the cells with the test compounds for 2 hours, 20 μL of growth factors at 10X assay concentration diluted in serum starvation media, FGF at 50 ng per mL, or VEGF (R&D systems 293-VE) at 200 ng per mL were added. The final concentration of FGF in the assay was 5 ng per mL and the final concentration of VEGF in the assays was 20 ng per mL. The growth factor free control wells had 20 μL per well of serum starvation media with the same amount of BSA as the wells with growth factors. The plates were returned to the incubator for an additional 22 hours.
(§4) After 24 hour exposure to the test compounds, the cells were labeled with BrdU (Roche Biochemicals 1-647-229), by adding 20 μL per well of BrdU labeling reagent that has been diluted (1:100) in serum starvation medium. The plates were then returned to the incubator for 4 hours. The labeling medium was removed by draining the medium onto paper towels. […] The plates were read at 450 nm with reference wavelength of 650 nm. The percent inhibition for each test compound was calculated by subtracting the absorbency of the blank (no cells) wells from all wells, then subtracting the division of the average absorbency of each test duplicate by the average of the controls from 1. […] The IC50 is determined from the linear regression of a plot of the logarithm of the concentration versus percent inhibition.
(Incorporation of labelled thymidine or its analogues reports DNA synthesis.)

The target of a further series is T2, KDR (Homo sapiens, UniProt P35968).
T2 construct: EEE tag
The experiment in a line: KDR kinase HTRF assay. The series is classed as biochemical. The conditions noted are these: 1 nM activated KDR, 0.3 mM ATP, 37° C. for 30 minutes; read-out: Inhibition of KDR IC50. How it is done: as §1
Prior to kinase reaction, recombinant EEE-tagged KDR was activated in the presence of activation buffer (50 mM HEPES, pH 7.4, 1 mM DTT, 10% glycerol, 150 mM NaCl, 0.1 mM EDTA, 26 mM MgCl2, and 4 mM ATP). The enzyme was incubated at 4° C. for 1 hour.
Kinase activity assays were performed in 96-well polypropylene plates (Falcon) with a total volume of 90 μL in each well. Each well contained 1 μM KDR substrate (Biotin-[…]), 1 nM activated KDR, and a test compound with one of 8 assay concentrations ranging from […] to […] (1:5 serial dilution). […] The reaction was incubated at 37° C. for 30 minutes. To stop the KDR reaction, 72 μL of reaction mixture was transferred into a STOP plate containing 18 μL of revelation buffer (20 mM EDTA, 50 mM HEPES, pH 7.4, 0.02% BSA, 10 nM Eu-labelled anti-pY antibody (final conc. 2 nM), and 100 nM streptavidin (final conc. 20 nM)). After mixing, 35 μL of solution was transferred into duplicate wells of a 384-well black plate (Costar), and read at 615/665 nm on a Wallac Victor 5 reader.
as §2

Another series has as its system HCT-116. As to the kind of experiment: HCT-116 (colon) cell-based MTT proliferation assay. The conditions noted are these: Homo sapiens, HCT-116, 96 h, 4 days post addition of test compound, read-out: Antiproliferative Activity HCT 116 (colon) Assay IC50. How it is done: The estrogen receptor negative epithelial breast carcinoma line (MDA-MB-435) was purchased from American Type Cell Culture Collection (ATCC; Rockville, Md.) and was grown in the medium recommended by ATCC. For analysis of the effect of the test compounds on growth of these cells, the cells were plated at 2000 cells per well in a 96-well tissue culture plate, and were incubated overnight at 37° C. with 5% CO2. The next day, the test compounds were dissolved in 100% dimethyl sulfoxide (DMSO) to yield a 10 mM stock solution. Each compound was diluted with sterile medium to 1 mM in a sufficient quantity to yield a final concentration of 120 μM. The compounds were then serially diluted in medium with 1.2% DMSO. One-fourth final volume of the diluted compounds was transferred to 96 well plates. Test compounds were assayed in duplicate. DMSO was added to a row of “control cells” such that the final concentration of DMSO in each well was 0.3%. Wells to which no cells were added served as the “blank.” Wells to which no inhibitor was added served as “no inhibitor control”. The plates were returned to the incubator, and 5 days post addition of test compound, were analyzed as described below.
3-(4,5-Dimethylthiazole-2-yl)-2,5-diphenyl-2H-tetrazolium bromide (thiazolyl blue; MTT) was added to each well to yield a final concentration of 1 mg/mL. The plates were then incubated at 37° C. for 3 hours. The plates were centrifuged at 1000 rpm for 5 minutes prior to aspiration of the MTT-containing medium. The MTT-containing medium was then removed and 100 μL 100% ethanol was added to each well to dissolve the resulting formazan metabolite. To ensure complete dissolution, plates were shaken for 15 minutes at room temperature. Absorbencies were read in a microtiter plate reader (Molecular Dynamics) at a wavelength of 570 nm with a 650 nm reference. Percent inhibition was calculated by subtracting the absorbance of the blank (no cell) wells from all wells, then subtracting the division of the average absorbance of each test duplicate by the average of the controls from 1.00. Inhibitory concentrations (IC50) were determined from the linear regression of a plot of the logarithm of the concentration versus the percent inhibition.
The colon adenocarcinoma line SW480 and the colon carcinoma line HCT-116 also were obtained from the ATCC and were tested according to the same protocol provided above for MDA-MB-435 cell based assay with the following modifications. Cell line SW480 was plated at 1000 cells per well and analyzed at 6 days post addition of the test compound. Cell line HCT-116 was plated at 1000 cells per well and analyzed at 4 days post addition of test compound.
In general terms: Tetrazolium assays rely on reduction of a dye to a coloured formazan, in cell work by metabolically active cells.

Another series concerns the target T3, Cyclin E/CDK2 (Homo sapiens, UniProt P24941).
T3 construct: made in house; host or cells: insect cells
As to the kind of experiment: CDK2 Flash Plate Assay (Rb phosphorylation, 33P-ATP). The series is classed as biochemical. How it is done:
To determine inhibition of CDK2 activity, purified recombinant retinoblastoma (Rb) protein was coated on 96 well FlashPlates (New England Nuclear, Boston, Mass.). […] Recombinant active human Cyclin E/CDK2 complexes were partially purified from extracts of insect cells. […] Plates were incubated for 25 minutes at room temperature with shaking, then washed and counted in the Topcount scintillation counter (Packard Instrument Co., Downers Grove, Ill.). Dilutions of test compounds were tested in duplicate in each assay. The percent inhibition of Rb phosphorylation, which is a measure of the inhibition of CDK2 activity, was determined according to the following formula:
[formula] where “test compound” refers to the average counts per minute of the test duplicates, “nonspecific” refers to the average counts per minute when no Cyclin E/CDK2 was added, and “total” refers to the average counts per minute when no compound was added.

The test system of the next series is VEGF-stimulated HUVEC. As to the kind of experiment: VEGF-stimulated HUVEC proliferation assay (BrdU). The format is cell-based. Particulars: Homo sapiens, BrdU labeling, VEGF 20 ng per mL, 24 hour exposure, read-out: Antiproliferative Activity VEGF-stimulated HUVEC Assay IC50. How it is done: as §3, §4

T2 sequence (P35968 20-1356, species assumed): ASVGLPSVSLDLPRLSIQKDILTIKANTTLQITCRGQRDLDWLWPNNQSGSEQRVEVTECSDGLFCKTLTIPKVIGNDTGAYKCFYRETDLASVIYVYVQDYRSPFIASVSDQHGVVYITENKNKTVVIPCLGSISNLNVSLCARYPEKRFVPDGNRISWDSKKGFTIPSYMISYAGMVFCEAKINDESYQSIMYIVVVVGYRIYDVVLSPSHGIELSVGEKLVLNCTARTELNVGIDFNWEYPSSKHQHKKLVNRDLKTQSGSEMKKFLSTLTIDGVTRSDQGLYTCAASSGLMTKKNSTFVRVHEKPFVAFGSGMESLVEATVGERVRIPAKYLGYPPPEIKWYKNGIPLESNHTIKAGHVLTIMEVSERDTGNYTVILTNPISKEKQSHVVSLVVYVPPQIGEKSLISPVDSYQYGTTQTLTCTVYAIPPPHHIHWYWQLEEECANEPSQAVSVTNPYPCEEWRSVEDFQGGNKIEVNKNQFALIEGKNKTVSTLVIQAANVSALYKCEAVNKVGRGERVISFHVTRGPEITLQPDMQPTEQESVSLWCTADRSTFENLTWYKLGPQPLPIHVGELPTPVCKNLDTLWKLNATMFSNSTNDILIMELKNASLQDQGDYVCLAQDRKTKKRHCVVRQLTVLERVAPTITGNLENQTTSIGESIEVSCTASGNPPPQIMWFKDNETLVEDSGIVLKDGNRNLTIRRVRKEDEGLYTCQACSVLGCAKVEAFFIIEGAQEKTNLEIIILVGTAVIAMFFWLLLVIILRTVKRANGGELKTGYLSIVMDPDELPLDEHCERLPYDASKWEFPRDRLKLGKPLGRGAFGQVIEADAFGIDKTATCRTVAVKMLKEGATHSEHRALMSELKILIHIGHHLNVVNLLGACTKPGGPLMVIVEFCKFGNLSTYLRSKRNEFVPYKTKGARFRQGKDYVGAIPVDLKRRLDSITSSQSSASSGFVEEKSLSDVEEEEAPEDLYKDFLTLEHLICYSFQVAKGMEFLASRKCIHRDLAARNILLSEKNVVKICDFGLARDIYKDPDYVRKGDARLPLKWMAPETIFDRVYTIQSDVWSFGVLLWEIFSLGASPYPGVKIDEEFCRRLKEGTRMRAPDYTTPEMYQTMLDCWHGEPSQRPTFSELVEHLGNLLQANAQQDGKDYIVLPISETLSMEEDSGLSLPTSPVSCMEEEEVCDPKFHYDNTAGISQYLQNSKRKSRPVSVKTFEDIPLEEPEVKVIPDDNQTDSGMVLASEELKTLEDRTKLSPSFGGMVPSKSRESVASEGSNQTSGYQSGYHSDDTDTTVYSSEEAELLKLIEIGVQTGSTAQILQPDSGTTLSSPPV

A word on the melting point: it is the temperature, or range, at which the solid turns liquid. In turn, `COc1cc2c(cc1Br)C(c1ccccc1Cl)=Nc1c(n[nH]c1C)N2` gave a melting point of 210 to 211 °C. Take `COc1cc2c(cc1F)C(c1ccccc1Cl)=Nc1c[nH]nc1N2`: the melting point is 242 to 243 °C. On the same count and under the same terms, next, `COc1cc2c(cc1C#N)C(c1ccccc1Cl)=Nc1c[nH]nc1N2`: 288 to 290 °C; `COc1cc2c(cc1C)C(c1ccccc1Cl)=Nc1c[nH]nc1N2`: 275 to 276 °C. What is called IC50 is the concentration needed to halve the response being measured. As for `COc1cc2c(cc1C(N)=O)C(c1ccccc1Cl)=Nc1c(n[nH]c1C)N2` [IVc], the IC50 is 32 nM at FGFR, < 1 nM in the series with FGF-stimulated HUVEC and 22 nM on KDR.

As for `COCCOc1cc2c(cc1OC)C(c1ccccc1Cl)=Nc1c(n[nH]c1C)N2` [IVgg, 5-(2-chlorophenyl)-1,2-dihydro-7-methoxy-8-methoxyethoxy-3-methyl-pyrazolo[3,4-b][1,4]benzodiazepine], the IC50 in the series on HCT-116 was 197 nM.

`Cc1[nH]nc2c1N=C(c1ccccc1Cl)c1cc(F)c(OC(C)C)cc1N2` [IVh, 5-(2-chlorophenyl)-1,2-dihydro-7-fluoro-8-(1-methylethoxy)-3-methyl-pyrazolo[3,4-b][1,4]benzodiazepine] came in with an IC50 against Cyclin E/CDK2 of 247 nM. Turning to `Cc1[nH]nc2c1N=C(c1ccccc1Cl)c1cc(F)c(OCCCN3CCOCC3)cc1N2` [IVi, 5-(2-chlorophenyl)-1,2-dihydro-7-fluoro-8-(3-(4-morpholinyl)propoxy)-3-methyl-pyrazolo[3,4-b][1,4]benzodiazepine], on KDR, the IC50 came to 31 nM. For the molecule `Cc1[nH]nc2c1N=C(c1ccccc1Cl)c1cc(C#N)c(OCCCN3CCOCC3)cc1N2` [IVk, 5-(2-chlorophenyl)-7-cyano-1,2-dihydro-8-(3-(4-morpholinyl)propoxy)-3-methyl-pyrazolo[3,4-b][1,4]benzodiazepine], the 50% inhibitory concentration (IC50) at FGFR came to 33 nM. On to `COCCOc1cc2c(cc1OC)Nc1n[nH]c(C)c1N=C2c1ccccc1Cl` [IVkk, 5-(2-chlorophenyl)-1,2-dihydro-8-methoxy-7-methoxyethoxy-3-methyl-pyrazolo[3,4-b][1,4]benzodiazepine], for which the IC50 stood at 24 nM at KDR and 509 nM in the series on HCT-116.

As for `Cc1cc2c(cc1C)C(c1ccccc1Cl)=Nc1c(n[nH]c1C)N2` [IVw, 5-(2-chlorophenyl)-1,2-dihydro-3,7,8-trimethyl-pyrazolo[3,4-b][1,4]benzodiazepine], the IC50 on FGFR turned out to be 38 nM; in the series on VEGF-stimulated HUVEC, 22 nM; with FGF-stimulated HUVEC it was 36 nM.

As to `COc1cc2c(cc1Cl)Nc1n[nH]c(C)c1N=C2c1ccccc1Cl` [IVy, 8-chloro-5-(2-chlorophenyl)-1,2-dihydro-7-methoxy-3-methyl-pyrazolo[3,4-b][1,4]benzodiazepine], the IC50 with VEGF-stimulated HUVEC is 174 nM. The same measure, in the same setting: next, `COc1cc2c(cc1C)C(c1ccccc1Cl)=Nc1c(n[nH]c1C)N2` [IVz, 5-(2-chlorophenyl)-1,2-dihydro-3,7-dimethyl-8-methoxy-pyrazolo[3,4-b][1,4]benzodiazepine]: 12 nM.
